The target of assay [1] is T1, Voltage-gated proton channel Hv1 (Mus musculus, UniProt Q3U2S8).
T1 construct: gene Hvcn1; endogenous Hv1 in BV2 microglial cells
T1 sequence (Q3U2S8 1-269): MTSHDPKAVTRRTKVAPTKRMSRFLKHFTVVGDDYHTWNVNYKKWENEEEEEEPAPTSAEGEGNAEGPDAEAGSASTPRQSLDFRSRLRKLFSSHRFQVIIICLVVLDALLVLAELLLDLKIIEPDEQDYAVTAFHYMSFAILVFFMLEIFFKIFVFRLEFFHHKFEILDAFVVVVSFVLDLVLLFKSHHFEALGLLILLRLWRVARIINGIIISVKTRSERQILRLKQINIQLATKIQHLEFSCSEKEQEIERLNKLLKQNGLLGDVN
In words: whole-cell patch clamp at +[…] mV in BV2 cells (activator); BCECF pH-recovery assay, effect abolished by Hv1 shRNA. Type of assay: cell-based.

For assay [2], the target named is T1, Voltage-gated proton channel Hv1. In words: whole-cell patch clamp at +[…] mV in BV2 cells; BCECF pH-recovery assay, effect abolished by Hv1 shRNA. In kind it is cell-based.

Regarding `O=C(CC1Sc2ccccc2NC1=O)Nc1ccccc1Cl` (centres unmarked) [S-023-0515], a half-maximal effect in assay [1] (EC50) was put at 8.41 ± 1.9 µM.

Consider `O=C(CC1Sc2ccccc2NC1=O)Nc1ccc(Cl)cc1` (centres unmarked) [YHV98-4], for which half-maximal inhibition in assay [2] (IC50) required 2.6 ± 1.1 µM.
